US20150018317A1, “BIOCIDAL COMPOSITION” (Dow Global Technologies LLC, priority 2010, published 2015)

Tested on: bacteria isolated from a industrial cooling water sample
Assay: Time-kill test in cooling water samples (MPN serial dilution)
Assay type: cell-based
Conditions: 37° C., start about 5×10^7 CFU/ml
Description: In this example, tributyl tetradecyl phosphonium chloride (TTPC), tetrakis(hydroxymethyl)phosphonium sulfate (THPS), and combinations of TTPC and THPS are tested at different concentrations for efficacy against bacteria isolated from a industrial cooling water sample. Water samples containing a final bacterial concentration of about 5×10^7 CFU/ml are used. Biocide solutions are prepared and diluted in sterile deionized water and used within 2 hours.
Time-kill tests are carried out to determine the threshold concentrations required for biocide activity in the cooling water samples. Tests are conducted in a 96-deep well block format using a total sample volume of 600 μl for all evaluations. In these samples, no more than 10% of the total volume consists of the biocide and organism solution and all non-matrix additions are normalized for all samples. Each experimental 96-well block contains biocide-treated samples and control samples which lack biocide. The biocides are added to the bacterial suspension at various concentrations and mixed well. The mixture samples are then incubated at 37° C. At several time intervals starting from 1 hour, viable bacteria left in the mixture are determined using the MPN method of serial dilution.
Synergy Index (SI) is calculated as shown below. An SI value of less than 1 indicates synergy.
Ca: Concentration of biocide A required to achieve bacterial concentrations of 2×10^3 CFU/ml or less when used in combination
CA: Concentration of biocide A required to achieve bacterial concentrations of 2×10^3 CFU/ml or less when used alone
Cb: Concentration of biocide B required to achieve bacterial concentrations of 2×10^3 CFU/ml or less when used in combination
CB: Concentration of biocide B required to achieve bacterial concentrations of 2×10^3 CFU/ml or less when used alone

Row | Molecule | Concentration of active needed to achieve bacterial concentrations of 2×10^3 CFU/ml or less, biocide used alone (4 hr) | Concentration of active needed to achieve bacterial concentrations of 2×10^3 CFU/ml or less, biocide used alone (24 hr) | Concentration of active needed to achieve bacterial concentrations of 2×10^3 CFU/ml or less, biocide used alone (48 hr) | Concentration of active needed to achieve bacterial concentrations of 2×10^3 CFU/ml or less, biocide used alone (3 day) | Concentration of active needed to achieve bacterial concentrations of 2×10^3 CFU/ml or less, biocide used alone (5 day) | Concentration of active needed to achieve bacterial concentrations of 2×10^3 CFU/ml or less, biocide used alone (7 day)
1 | CCCCCCCCCCCCCC[P+](CCCC)(CCCC)CCCC.[Cl-] [TTPC, tributyl tetradecyl phosphonium chloride] | 30 ppm | 40 ppm | 40 ppm | 40 ppm | 40 ppm | 40 ppm
2 | tetrakis(hydroxymethyl)phosphonium sulfate [THPS] | 100 ppm | 75 ppm | 75 ppm | 75 ppm | 75 ppm | 75 ppm
